Experimental data published in paper PMC9530166, “Allosteric regulation of glycogen breakdown by the second messenger cyclic di-GMP” (Nature Communications, 2022).

Key:
[1] = system: GlgXR438A-R579A; test: Fluorescence polarization binding, GlgXR438A-R579A; design: species or system Streptomyces venezuelae
Source text: Fig. 5 Structure of the S. venezuelae GlgX-c-di-GMP complex. a Ribbon diagram of the S. venezuelae GlgX-c-di-GMP complex with one GlgX subunit colored cyan and the other salmon. Shown as sticks are the c-di-GMP molecules bound at each end of the antiparallel dimer. […] There was clear density for each c-di-GMP molecule. b Close up of the GlgX-c-di-GMP binding interaction. Key residues mediating contacts to the c-di-GMP are shown as sticks and labeled. Hydrogen bonds from GlgX residues that specify binding to the guanine are indicated by yellow dashed lines. c Fluorescence polarization (FP) binding isotherm showing interaction of GlgX, GlgXE47A-R49A and GlgXR438A-R579A for F-c-di-GMP in red, green and blue respectively. Also shown is the binding isotherm for GlgX binding to F-c-di-AMP in black. […] The y-axis and x-axis are millipolarization (mP) units and GlgX concentration (μM), respectively. Shown are representative binding curves for each. The experiments were performed in technical triplicates and the error between measurements reported. […]
Thus, we used this F-tagged c-di-GMP in fluorescence polarization (FP) studies to quantify the interaction between GlgX and c-di-GMP. […] To ensure that the presence of the fluorescent tag was not impacting the GlgX interaction with c-di-GMP we used microscale thermophoresis (MST) to quantify c-di-GMP binding to GlgX. […]

[2] = system: His6-GlgXE378A; test: BCA reducing-end enzyme assay, GlgXE378A; format: biochemical, Streptomyces venezuelae; settings: 50 µM c-di-GMP, 0.05% glycogen from rabbit, 1 µM enzyme
Method: Fig. 2 c-di-GMP stimulates glycogen breakdown activity of GlgX in vitro. a Bicinchoninic acid (BCA) in vitro enzyme assay. The purple copper bicinchoninate complex indicating GlgX-mediated generation of reducing ends in glycogen was quantified by photometric measurements at 562 nm. A562 values were converted into reducing ends [µM glucose equivalents] based on D-glucose as a standard. Reactions contained 0.05% (w/v) glycogen from rabbit, 1 µM GlgX and increasing concentrations of c-di-GMP (0–100 µM). Source data are provided as a Source data file. b BCA assay containing 0.05% of either glycogen from rabbit, pullulan, amylopectin from maize or amylose from potato as substrates. Where appropriate, 1 µM GlgX or 50 µM c-di-GMP were added to the reaction samples. Source data are provided as a Source data file. c BCA assay as in a with or without c-di-GMP (50 µM), 0.05% glycogen from rabbit (S) and 1 µM Vnz25270, GlgX, the active site mutants GlgXD342A, GlgXE378A, GlgXD342A+E378A, or the c-di-GMP-binding mutant variant GlgXDETR49-52 as indicated. […]
Hydrolysis of carbohydrates was assessed in vitro by measuring the accumulation of reducing sugar ends using the BCA assay[42] and D-glucose as a standard for calibration (Supplementary Fig. 11). […] 125 μl sample aliquots were transferred in duplicates to a 96 well plate and the absorbance at 562 nm was measured using a plate reader.

SMILES: Nc1nc2c(ncn2[C@@H]2O[C@@H]3CO[P@](=O)(O)O[C@H]4[C@@H](O)[C@H](n5cnc6c(=O)[nH]c(N)nc65)O[C@@H]4CO[P@](=O)(O)O[C@H]3[C@H]2O)c(=O)[nH]1 [c-di-GMP, bis-(3′−5′)-cyclic diguanosine monophosphate]
- binding to mutant in FP [1]: weak, nonsaturable binding
- stimulation of enzyme activity by c-di-GMP [2]: could not be stimulated
